Our source for the Ki values is BindingDB's records for doi:10.1021/jm00346a010 (1982).

For assay [1], the target named is Adenylate kinase (Escherichia coli) (UniProt P69441). Kind of assay: Ability to inhibit Escherichia coli adenylate kinase II, activity expressed as Inhibition constant.
For assay [2] the target is unchanged. Kind of assay: Ability to inhibit Escherichia coli adenylate kinase III, activity expressed as Inhibition constant; Non competitive inhibition.

Take `O=C(NCCCCCNc1ncnc2c1ncn2C1O[C@H](COP(=O)(O)OP(=O)(O)OP(=O)(O)O)[C@@H](O)[C@H]1O)OCc1ccccc1` (stereo not given in full): the Ki in assay [1] amounted to 4.7 mM. In assay [1], `NCCCCCCNc1nc2c(N)ncnc2n1C1O[C@H](COP(=O)(O)OP(=O)(O)OP(=O)(O)O)[C@@H](O)[C@H]1O` (stereo not given in full) showed a Ki of 7.3 mM. `O=C(CI)NCCCCCNc1ncnc2c1ncn2[C@@H]1O[C@H](COP(=O)(O)OP(=O)(O)OP(=O)(O)O)[C@@H](O)[C@H]1O` displayed a Ki in assay [2] of 4.8 mM. `CN(CCCN(C)C(=O)CCCCNc1ncnc2c1ncn2[C@@H]1O[C@H](COP(=O)(O)OP(=O)(O)OP(=O)(O)O)[C@@H](O)[C@H]1O)C(=O)CCCCNC(=O)OCc1ccccc1` returned a Ki in assay [1] of 6.8 mM.

As for `CC(=O)NCCCCCCNc1nc2c(N)ncnc2n1C1O[C@H](COP(=O)(O)OP(=O)(O)OP(=O)(O)O)[C@@H](O)[C@H]1O` (stereo not given in full), in assay [1], the affinity corresponds to a Ki of 6.7 mM.
